# Measurements: PMC7129073 (Clinical Microbiology and Infection, 2015)
# Read-outs that look alike come from different tables or passages of the source.
# Tests used:
# S. aureus SCVs = assay: Resistance of small colony variants from cystic fibrosis patients; format: cell-based, Staphylococcus aureus; details: CF patients, Frankfurt 2004
# S. maltophilia = assay: Susceptibility of respiratory isolates of cancer patients; format: cell-based, Stenotrophomonas maltophilia; details: 40 patients
# [1] = test system: Salmonella serotype Typhimurium; assay: Disk diffusion, food isolates Spain; format: cell-based; details: n = 53
# Acinetobacter = assay: Disk diffusion; format: cell-based
# M. catarrhalis = assay: PROTEKT Italy, NCCLS microdilution; format: cell-based, Moraxella catarrhalis
# [2] = test system: Salmonella serotype Enteritidis; assay: Disk diffusion, food isolates Spain; format: cell-based; details: n = 96
# H. influenzae [3] = assay: Disk diffusion, sputum isolates Athens 2001–2004; format: cell-based, Haemophilus influenzae
# Escherichia coli = assay: Vitek 2 susceptibility, urine isolates of children; format: cell-based
# [4] = UTI under TMP-SMX prophylaxis after renal transplantation; format: in vivo, human; details: prophylaxis for 12 months; 104 of 336 patients
# H. influenzae [5] = format: cell-based, Haemophilus influenzae
# H.influenzae = assay: PROTEKT Italy, NCCLS microdilution; format: cell-based, Haemophilus influenzae
# H. influenzae [6] = assay: Broth microdilution; format: cell-based, Haemophilus influenzae; details: 267 isolates
# S. pneumoniae [7] = assay: Broth microdilution; format: cell-based, Streptococcus pneumoniae; details: 275 isolates
# [8] = test system: glycopeptide intermediate Staphylococcus species (GISS); assay: VITEK II, screening plate and E test, blood isolates; format: cell-based, coagulase-negative Staphylococci; details: 73 GISS strains
# C. jejuni ATCC 33560 = assay: VetMIC broth microdilution, QC strain; format: cell-based; details: Campylobacter jejuni, ATCC33560, read-out: QC limits (MIC)
# [9] = test system: Clostridium difficile (CD); assay: Agar dilution MIC, CDAD isolates Montreal; format: cell-based; details: Clostridioides difficile
# F. necrophorum = assay: E-test, 13 clinical isolates; format: cell-based, Fusobacterium necrophorum; details: for MIC50 / MIC90: Fusobacterium necrophorum
# Clostridium difficile = assay: microbe, parasite or virus in culture; format: cell-based
# B. fragilis strains = assay: E-test MIC before and after passages on metronidazole agar; format: cell-based; details: Bacteroides fragilis
# [10] = test system: foreign body infection Staphylococcus epidermidis strains; assay: NCCLS disk diffusion; format: cell-based; details: 86 strains
# [11] = test system: viridans group streptococci (VGS); assay: MIC; format: cell-based
# S. aureus [12] = assay: E-test susceptibility; format: cell-based, Staphylococcus aureus
# C. difficile = assay: E-test, isolates from a department of surgery; format: cell-based, Clostridium difficile; details: Clostridioides difficile, read-out: MIC of high level resistant strains
# S. pneumoniae [13] = format: cell-based, Streptococcus pneumoniae
# S. pneumoniae (SPN) [14] = assay: SENTRY Brazil, NCCLS broth microdilution; format: cell-based, Streptococcus pneumoniae
# C. glabrata = assay: Antifungal susceptibility; format: cell-based, Candida glabrata
# C. albicans = assay: Antifungal susceptibility; format: cell-based, Candida albicans
# Enterobacteriaceae = assay: SMART 2003 Europe, microdilution; format: cell-based; details: 1948 isolates
# [15] = test system: Pseudomonas aeruginosa (PA); assay: MIC; format: cell-based
# S. pneumoniae [16] = assay: SELECT study, levofloxacin-treated RTIs caused by S. pneumoniae; format: in vivo, human
# [17] = test system: Haemophilus influenzae (HI); assay: MIC; format: cell-based; details: 7489 isolates
# S. aureus [18] = assay: NCCLS broth microdilution, SSTI isolates; format: cell-based; details: Staphylococcus aureus
# [19] = test system: Streptococcus agalactiae strains P0162 and P0425; assay: Microdilution; format: cell-based
# [20] = test system: Streptococcus pyogenes (SPY); assay: MIC; format: cell-based; details: 2522 isolates
# S. pneumoniae (SPN) [21] = assay: NCCLS broth microdilution, fluoroquinolones 1999–2004; format: cell-based, Streptococcus pneumoniae; details: Streptococcus pneumoniae, read-out: MIC90 during the six years, 1999–2004
# S. pneumoniae [22] = assay: MIC of invasive strains, Saint George Hospital 2001–2004; format: cell-based, Streptococcus pneumoniae
# [23] = test system: Streptococcus pneumoniae (SPN); assay: MIC; format: cell-based; details: 8378 isolates
# E. coli = assay: SMART 2003 Europe, microdilution; format: cell-based, Escherichia coli; details: 1106 isolates
# [24] = test system: Moraxella catarrhalis (MC); assay: MIC; format: cell-based; details: 2497 isolates
# Klebsiella = assay: SMART 2003 Europe, microdilution; format: cell-based, Klebsiella spp.; details: 341 isolates
# S. pneumoniae [25] = assay: PROTEKT Italy, NCCLS microdilution; format: cell-based, Streptococcus pneumoniae
# [26] = test system: inducible Enterobacteriaceae; assay: SMART 2003, intraabdominal isolates; format: cell-based; details: LA (N=113)
# [27] = test system: Coagulase Negative Staphylococci; assay: E-test susceptibility; format: cell-based
# [28] = ICU, SRGA breakpoints, tigecycline tentative S ≤2 μg/ml
compound,measurement,setting,value
trimethoprim/sulfamethoxazole,resistance rate of SCV isolates,S. aureus SCVs,All SCV isolates were resistant
same,Susceptible isolates,S. maltophilia,93%
same,resistance rate (NCCLS M100-S13),[1],19%
same,resistant isolates,Acinetobacter; 37 isolates selected as resistant to beta-lactams,59.5%
same,susceptibility rate,M. catarrhalis; year 1,77.3%
same,susceptibility rate,M. catarrhalis; year 2,81.1%
same,resistance rate (NCCLS M100-S13),[2],7%
same,resistance rate,H. influenzae [3]; 2001–2002,26.9%
same,resistance rate,H. influenzae [3]; 2003–2004,13.4%
same,susceptibility rate,Escherichia coli; paediatric surgical unit (PSU),35%
same,susceptibility rate,Escherichia coli; paediatric units (PU),71%
same,patients with UTI within 2 years after transplantation,[4],31%
same,resistant,H. influenzae [5],19%
same,resistance,H.influenzae; year 1,13.6%
same,resistance,H.influenzae; year 2,14.1%
same,susceptible,H. influenzae [6],54.3%
same,Susceptibility,S. pneumoniae [7],46.2%
same,resistance rate,[8],"38,3%"
CCN1CCN(c2cc3c(cc2F)c(=O)c(C(=O)O)cn3C2CC2)CC1 [enrofloxacin],MIC,C. jejuni ATCC 33560,0.25 to 0.5 µg/mL
Cc1ncc([N+](=O)[O-])n1CCO [metronidazole],MIC,"[9]; read-out: median MIC, 2003–4",2 µg/mL
same,MIC,"[9]; read-out: median MIC, other ribotypes",0.5 µg/mL
same,MIC range,F. necrophorum,0.016 to 2 µg/mL
same,MIC50,F. necrophorum,0.125 µg/mL
same,MIC90,F. necrophorum,0.5 µg/mL
same,MIC,"Clostridium difficile; Clostridioides difficile, read-out: MICs of selected resistant isolates",16 to 64 µg/mL
same,prevalence of resistance,Clostridium difficile; authors' institution,6%
same,MIC,B. fragilis strains; 10 nim-negative clinical isolates,0.25 to 0.75 µg/mL
same,MIC,"B. fragilis strains; ATCC25285, ATCC 25285, nim-negative",0.19 µg/mL
same,MIC,B. fragilis strains; four nim-positive reference strains,3 to 8 µg/mL
same,MIC,B. fragilis strains; three nim-positive clinical isolates,> 256 µg/mL
CCC[C@@H]1C[C@@H](C(=O)N[C@@H]([C@H]2O[C@H](SC)[C@H](O)[C@@H](O)[C@H]2O)[C@H](C)Cl)N(C)C1 [clindamycin],% resistant,[10],More than 30%
same,MIC range,F. necrophorum,0.016 to 0.125 µg/mL
same,MIC50,F. necrophorum,0.032 µg/mL
same,MIC90,F. necrophorum,0.064 µg/mL
same,MIC50,[11],0.06 µg/mL
same,MIC90,[11],256 µg/mL
same,Susceptibility,S. aureus [12]; [28],99%
same,Susceptibility,S. aureus [12]; non-ICU,96%
same,MIC,C. difficile,> 256 µg/mL
same,resistant,S. pneumoniae [13],5%
same,Susceptibility,S. pneumoniae [7],91.3%
same,% S,S. pneumoniae (SPN) [14]; 1998,94/- %
same,% S,S. pneumoniae (SPN) [14]; 1999,95/- %
same,% S,S. pneumoniae (SPN) [14]; 2000,96/- %
same,% S,S. pneumoniae (SPN) [14]; 2001,95/- %
same,% S,S. pneumoniae (SPN) [14]; 2002,100/- %
same,% S,S. pneumoniae (SPN) [14]; 2003,98/- %
CC(=O)N1CCN(c2ccc(OCC3COC(Cn4ccnc4)(c4ccc(Cl)cc4Cl)O3)cc2)CC1 (stereo not drawn) [ketokonazole],intermediate susceptibility,C. glabrata,22%
same,intermediate susceptibility,C. albicans,2%
C[C@H]1COc2c(N3CCN(C)CC3)c(F)cc3c(=O)c(C(=O)O)cn1c23 [levofloxacin],per cent susceptible,Enterobacteriaceae,86%
same,isolates with MPC ≥ 8 μg/ml,[15],64%
same,MPC range,[15]; 10 billion organisms on agar,2 to 16 µg/mL
same,MIC range,[15]; patients P1 and P2,0.25 to 2 µg/mL
same,clinical successes,"S. pneumoniae [16]; 500 mg once or twice daily, 90/100 subjects",90%
same,"clinical success, PNSSPs",S. pneumoniae [16]; 44/49,89.8%
same,"clinical success, PSSPs",S. pneumoniae [16]; 46/51,90.2%
same,died due to initial infection,S. pneumoniae [16]; eight subjects,8%
same,clinical failures,S. pneumoniae [16]; two subjects,2%
same,MIC90,[17],0.12 ig/ml
same,MIC50,S. aureus [18],0.25 µg/mL
same,MIC,"[19]; strain P0162 (ParC Ser79Phe, GyrA Glu85Ala)",8 µg/mL
same,MIC,"[19]; strain P0425 (ParC Ser79Phe, GyrA Glu85Lys)",> 32 µg/mL
same,MIC90,[20],1 ig/ml
same,MIC90,S. pneumoniae (SPN) [21],1 to 2 µg/mL
same,resistant isolates,Acinetobacter,78.4%
same,% S,S. pneumoniae [22],100%
same,%R,S. pneumoniae [22],0%
same,MIC90,[23],1 ig/ml
same,per cent susceptible,E. coli,81%
same,MIC50,[11],0.5 µg/mL
same,MIC90,[11],1 µg/mL
same,MIC90,[24],0.12 ig/ml
same,per cent susceptible,Klebsiella,93%
same,Susceptibility,S. pneumoniae [7],99.6%
same,susceptible,S. pneumoniae [25]; year 1: 2002,97.3%
same,susceptible,S. pneumoniae [25]; year 2: 2003,97.1%
same,% susceptible,[26],80%
CO[C@H]1/C=C/O[C@@]2(C)Oc3c(C)c(O)c4c(O)c(c(/C=N/N5CCN(C)CC5)c(O)c4c3C2=O)NC(=O)/C(C)=C\C=C\[C@H](C)[C@H](O)[C@@H](C)[C@@H](O)[C@@H](C)[C@H](OC(C)=O)[C@@H]1C [Rifampicin],Susceptibility,[27]; ICU,86%
same,Susceptibility,[27]; non-ICU,97%
same,Susceptibility,S. aureus [12]; [28],99/99%
same,Susceptibility,S. aureus [12]; non-ICU,99/99%
